What follows are compounds tested on compound-treated mice (assay: Neuropharmacological assay (SmartCube): behavioral activity signature and minimal effective dose). Settings: MED = dose having 50% or more total activity.
Type: in vivo
Procedure, shortened: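 Mice dosed i.p. 15 min before test, compound in N-methyl-2-pyrrolidone/PEG/propylene glycol, 3 doses; video-captured behavior matched to reference-drug signatures, giving per-class probabilities at most efficacious dose. MED from doses typically 0.3–30 mpk, defined as lowest dose with ≥50% total activity.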
With “cis-3-Isopropylisochroman-4-amine hydrochloride [Example 273]” the “Potency: minimal effective dose (MED), binned” value was “A (≤3 mpk)”.

Same assay, conditions: Mus musculus, ip, MED = dose having 50% or more total activity, read-out: Potency: minimal effective dose (MED), binned
With CCN(C)C(=O)Oc1ccc2c(c1)CO[C@@H](C)[C@H]2N(C)C.Cl [Example 285] the minimal effective dose was 3 to 10 mg/kg. In the case of CCN(C)C(=O)Oc1ccc2c(c1)CO[C@H](C)[C@H]2N(C)C.Cl [Example 286], the minimal effective dose is reported as 10 to 30 mg/kg. In the case of CCN(C)C(=O)Oc1ccc2c(c1)[C@H](N(C)C)[C@H](C)OC2.Cl [Example 287], the minimal effective dose is reported as > 30 mg/kg. For CCN(C)C(=O)Oc1ccc2c(c1)[C@H](N(C)C)[C@@H](C)OC2.Cl [Example 288], the minimal effective dose was > 30 mg/kg.

Same assay, conditions: i.p. 15 min before test, most efficacious dose(s)
For CCN(C)C(=O)Oc1ccc2c(c1)CO[C@@H](C)[C@H]2N(C)C.Cl [Example 285], the “AD: ADHD (probability of activity signature)” value (shortened to “AD: ADHD”) was “++ (5% ≤ ++ <25%)”, the “AG: analgesic (probability of activity signature)” value (“AG: analgesic” below) was “+ (LOQ ≤ + <5%)” and the “AX: anxiolytic (probability of activity signature)” value (shortened to “AX: anxiolytic”) was “++ (5% ≤ ++ <25%)”. For the same compound, the “CE: cognitive enhancer (probability of activity signature)” value (from here on “CE: cognitive enhancer”) was “+ (LOQ ≤ + <5%)”, the “DP: anti-depressant (probability of activity signature)” value (“DP: anti-depressant” for short) was “++ (5% ≤ ++ <25%)” and the “MS: mood stabilizer (probability of activity signature)” value (from here on “MS: mood stabilizer”) was “++++ (50% ≤ ++++)”. For the same compound, the “PS: anti-psychotic (probability of activity signature)” value (from here on “PS: anti-psychotic”) was “++++ (50% ≤ ++++)”, the “SD: sedative hypnotic (probability of activity signature)” value (“SD: sedative hypnotic” for short) was “+ (LOQ ≤ + <5%)” and the “UN: uncharacterized CNS activity (probability of activity signature)” value (“UN: uncharacterized CNS activity” below) was “++ (5% ≤ ++ <25%)”. CCN(C)C(=O)Oc1ccc2c(c1)CO[C@H](C)[C@H]2N(C)C.Cl [Example 286] was tested, and the “AD: ADHD” value was “+ (LOQ ≤ + <5%)”, the “AG: analgesic” value was “+ (LOQ ≤ + <5%)” and the “AX: anxiolytic” value was “+ (LOQ ≤ + <5%)”. For the same compound, the “CE: cognitive enhancer” value was “+ (LOQ ≤ + <5%)”, the “DP: anti-depressant” value was “++ (5% ≤ ++ <25%)” and the “MS: mood stabilizer” value was “++ (5% ≤ ++ <25%)”. For the same compound, the “PS: anti-psychotic” value was “+ (LOQ ≤ + <5%)”, the “SD: sedative hypnotic” value was “++ (5% ≤ ++ <25%)” and the “UN: uncharacterized CNS activity” value was “++ (5% ≤ ++ <25%)”. CCN(C)C(=O)Oc1ccc2c(c1)[C@H](N(C)C)[C@H](C)OC2.Cl [Example 287] was tested, and the “AD: ADHD” value was “+ (LOQ ≤ + <5%)”, the “AG: analgesic” value was “+ (LOQ ≤ + <5%)” and the “AX: anxiolytic” value was “+ (LOQ ≤ + <5%)”. For the same compound, the “CE: cognitive enhancer” value was “+ (LOQ ≤ + <5%)”, the “DP: anti-depressant” value was “+ (LOQ ≤ + <5%)” and the “MS: mood stabilizer” value was “+ (LOQ ≤ + <5%)”. For the same compound, the “PS: anti-psychotic” value was “+ (LOQ ≤ + <5%)”, the “SD: sedative hypnotic” value was “++ (5% ≤ ++ <25%)” and the “UN: uncharacterized CNS activity” value was “+ (LOQ ≤ + <5%)”. For CCN(C)C(=O)Oc1ccc2c(c1)[C@H](N(C)C)[C@@H](C)OC2.Cl [Example 288], the “AD: ADHD” value was “+ (LOQ ≤ + <5%)”, the “AG: analgesic” value was “+ (LOQ ≤ + <5%)” and the “AX: anxiolytic” value was “+ (LOQ ≤ + <5%)”. The “CE: cognitive enhancer” value was “+ (LOQ ≤ + <5%)”, the “DP: anti-depressant” value was “++ (5% ≤ ++ <25%)” and the “MS: mood stabilizer” value was “+ (LOQ ≤ + <5%)”. For the same compound, the “PS: anti-psychotic” value was “+ (LOQ ≤ + <5%)”, the “SD: sedative hypnotic” value was “++ (5% ≤ ++ <25%)” and the “UN: uncharacterized CNS activity” value was “+ (LOQ ≤ + <5%)”. With “cis-3-Isopropylisochroman-4-amine hydrochloride [Example 273]” the “AD: ADHD” value was “+ (LOQ ≤ + <5%)”, the “AG: analgesic” value was “++ (5% ≤ ++ <25%)” and the “AX: anxiolytic” value was “+ (LOQ ≤ + <5%)”. The “CE: cognitive enhancer” value was “+ (LOQ ≤ + <5%)”, the “DP: anti-depressant” value was “++ (5% ≤ ++ <25%)” and the “MS: mood stabilizer” value was “++ (5% ≤ ++ <25%)”. For the same compound, the “PS: anti-psychotic” value was “+ (LOQ ≤ + <5%)”, the “SD: sedative hypnotic” value was “+++ (25% ≤ +++ <50%)” and the “UN: uncharacterized CNS activity” value was “++ (5% ≤ ++ <25%)”.
